{
  "source": "patent US20070213324A1",
  "about": "(priority 2006, published 2007)",
  "key": {"[1]": {"settings": "in vivo"}, "[2]": {"settings": "cited from earlier work"}, "[3]": {"experiment": "Phase I bioavailability study, single dose and steady state", "settings": "carisoprodol, any condition", "protocol": "Sixty healthy male volunteers participated in the study and were divided into four treatment groups. […] The study was prospective, single-blind, parallel, longitudinal, and comparative with a placebo and with the components of the combination administered separately, with randomized distribution into 4 groups.\nA pharmacokinetic study was conducted on day 1 and day 14 so that bioavailability could be clearly identified for single dose and for multiple doses, and so that the bioequivalence of the combined product could be compared to the individual products."}, "[4]": {"system": "pain produced by a sprained ankle", "experiment": "Phase II evaluation of pain by visual analogue scale (VAS)", "type": "in vivo, human", "settings": "for time from administration to analgesic effect (VAS, significant versus placebo): carisoprodol 200 mg / meloxicam 15 mg, sprained ankle"}, "[5]": {"settings": "cited from earlier work", "remark": "listed apart in the source"}, "[6]": {"system": "platelet aggregation induced by collagen or arachidonic acid", "settings": "cited from earlier work"}, "[7]": {"system": "production of thromboxane in platelets", "settings": "cited from earlier work"}, "plasma proteins": {"system": "plasma proteins", "settings": "cited from earlier work"}, "[8]": {"system": "functional recovery of patients with a sprained ankle", "experiment": "Phase II functional recovery"}},
  "data": [
    {"molecule": "CCCC(C)(COC(N)=O)COC(=O)NC(C)C", "note": "(stereo not shown) [Carisoprodol]", "values": [
      {"measurement": "blood pressure", "setting": "[1]", "value": "decrease in blood pressure"},
      {"measurement": "changes in the physiological tests (reaction time, awareness)", "setting": "[1]", "value": "did not produce any changes"},
      {"measurement": "sedative effect: MINIMENTAL test before versus after administration", "setting": "[1]", "value": "no significant differences"},
      {"measurement": "half-life", "setting": "[2]; in vivo", "value": 8, "unit": "h"},
      {"measurement": "time of initial musculoskeletal relaxant effect", "setting": "[2]; in vivo", "value": "30 to 45", "unit": "min"},
      {"measurement": "bioequivalence, combined versus on its own", "setting": "[3]", "value": "no bioequivalence in any condition"}
    ]},
    {"molecule": "Cc1cnc(NC(=O)C2=C(O)c3ccccc3S(=O)(=O)N2C)s1", "note": "[Meloxicam, 4-hydroxy-2-methyl-N-(5-methyl-2-thiazolyl)-2H-1,2-benzothiazine-3-carboxamide-1,1-dioxide]", "values": [
      {"measurement": "time from administration to analgesic effect (VAS, significant versus placebo)", "setting": "[4]", "value": "up to 360 minutes"},
      {"measurement": "time from administration to analgesic effect (VAS, significant versus placebo)", "setting": "[4]; listed as meloxicam", "value": 360, "unit": "min"},
      {"measurement": "p versus placebo, VAS", "setting": "[4]; minute 360", "value": 0.021},
      {"measurement": "solubility in methanol", "setting": "[5]; methanol", "value": "very slightly soluble"},
      {"measurement": "solubility in strong acids and bases", "setting": "[5]; strong acids and bases", "value": "higher solubility"},
      {"measurement": "solubility in water", "setting": "[5]; water", "value": "practically insoluble in water"},
      {"measurement": "inhibition of platelet aggregation", "setting": "[6]", "value": "does not inhibit"},
      {"measurement": "production of thromboxane in platelets", "setting": "[7]", "value": "significantly reduce"},
      {"measurement": "bound to plasma proteins", "setting": "plasma proteins", "value": 99.5, "unit": "%"},
      {"measurement": "time of second maximum concentration peak", "setting": "[2]; after administration, enterohepatic circulation", "value": "12 to 14", "unit": "h"},
      {"measurement": "time to steady state", "setting": "[2]; days of dosage", "value": 5, "unit": "days"},
      {"measurement": "effect of food intake on absorption", "setting": "[2]; in vivo", "value": "not altered"},
      {"measurement": "absorbed after administration", "setting": "[2]; orally", "value": 89, "unit": "%"},
      {"measurement": "p versus placebo, functional recovery", "setting": "[8]; 1440 minutes", "value": 0.037},
      {"measurement": "time at which functional recovery is statistically different from placebo", "setting": "[8]; in vivo", "value": 24, "unit": "h"},
      {"measurement": "time from administration to functional recovery (significant versus placebo)", "setting": "[8]; sprained ankle", "value": 1440, "unit": "min"}
    ]}
  ]
}
